Source: patent US20080318993A1 (Endo Pharmaceuticals, Inc., priority 2007, published 2008)

How the values were obtained:
[1] = 10 mg oral oxymorphone, cited from earlier work
[2] = Example 5: urinary excretion of oxymorphone and metabolites in hepatic impairment vs healthy controls; settings: for mean amount excreted in the urine: percent of administered dose, through 120 hours; for conversion of oxymorphone to the metabolite reduced by: from urine ratios
Source text: (§1) While in the clinic, the subjects were to refrain from strenuous physical activity.

[3] = Example 5: plasma pharmacokinetics of EN3202 20 mg in hepatic impairment vs healthy controls; set-up: AUC point estimate, mild hepatic impairment vs healthy controls / Cmax point estimate, mild hepatic impairment vs healthy controls: unit not given beside the values; settings: for AUCT / Cmax / T½ / λz / AUC: mean (SD); for Tmax: median (range); for AUC: plasma, single 20 mg EN3202, fasting; for mean (±SD) ratio of plasma metabolite AUC to oxymorphone AUC: AUC converted to molar concentrations; for increase in average AUC relative to controls: arithmetic means; for conversion of oxymorphone to the metabolite reduced by: from mean plasma metabolite ratios
Method: as §1
All study medications were supplied by the sponsor. […] A single 20 mg dose EN3202 was administered following an overnight fast (from approximately 22:00 on the evening prior to dose administration) at approximately 08:00, and participants were not allowed to eat until at least four hours after the dose.
All doses were administered with 240 mL of ambient water. Participants were instructed to drink all of the water.
Pharmacokinetic parameters were calculated using model-independent methods.
All pharmacokinetic results are summarized using appropriate descriptive statistics. […] One-way ANOVA was conducted using the model PKVAR=group, where group was mild hepatic impairment, moderate-severe hepatic impairment, or healthy control. Point estimates of the impaired versus control group differences and the corresponding 90% confidence limits were constructed.

[4] = moderate-severe hepatic impairment

**Q.** Which “Urinary recovery, conjugated” value [1] does the source give for `CN1CC[C@]23c4c5ccc(O)c4O[C@H]2C(O)CC[C@@]3(O)[C@H]1C5` (stereo partly drawn) [6-OH-oxymorphone, 6-hydroxy oxymorphone] here?
**A.** 2.6%

**Q.** What about the “Urinary recovery, free” value [1] of the same compound?
**A.** ~0.3%

**Q.** And the “Urinary recovery, of the dose” value ([1]; free plus conjugated)?
**A.** approximately 3%

**Q.** And the “urinary excretion essentially complete by” value ([2]; after single 20 mg dose)?
**A.** ≤ 96 h

**Q.** What about the “mean amount excreted in the urine” value ([2]; control group) of the same compound?
**A.** 0.25%

**Q.** And the “mean amount excreted in the urine” value ([2]; mild hepatic impairment)?
**A.** 0.71%

**Q.** What about the “mean amount excreted in the urine” value [2, 4] of the same compound?
**A.** 0.88%

**Q.** And the AUCT ([3]; Healthy Controls)?
**A.** 10.80 (9.65) ng · hr/mL

**Q.** What about the Cmax ([3]; Healthy Controls) of the same compound?
**A.** 0.72 (0.32) ng/mL

**Q.** And the T½ ([3]; Healthy Controls)?
**A.** 19.19 (11.75) hr

**Q.** And the λz ([3]; Healthy Controls)?
**A.** 0.0532 (0.0356) hr^−1

**Q.** What about the Tmax ([3]; Healthy Controls) of the same compound?
**A.** 1.25 (1.0-4.0) hr

**Q.** And the AUC ([3]; Healthy Controls)?
**A.** 14.76 (11.51) ng · hr/mL

**Q.** And the AUCT ([3]; Mild Impairment)?
**A.** 14.11 (9.73) ng · hr/mL

**Q.** What about the Cmax ([3]; Mild Impairment) of the same compound?
**A.** 1.12 (0.79) ng/mL

**Q.** And the T½ ([3]; Mild Impairment)?
**A.** 17.54 (13.12) hr

**Q.** What about the λz ([3]; Mild Impairment) of the same compound?
**A.** 0.0545 (0.0269) hr^−1

**Q.** And the Tmax ([3]; Mild Impairment)?
**A.** 1.25 (0.5-3.0) hr

**Q.** And the AUC ([3]; Mild Impairment)?
**A.** 17.35 (11.17) ng · hr/mL

**Q.** What about the AUCT ([3]; Moderate-Severe Impairment) of the same compound?
**A.** 29.25 (20.17) ng · hr/mL

**Q.** What about the Cmax ([3]; Moderate-Severe Impairment) of the same compound?
**A.** 1.78 (1.00) ng/mL

**Q.** What about the T½ ([3]; Moderate-Severe Impairment) of the same compound?
**A.** 13.87 (8.02) hr

**Q.** And the λz ([3]; Moderate-Severe Impairment)?
**A.** 0.0632 (0.0303) hr^−1

**Q.** And the Tmax ([3]; Moderate-Severe Impairment)?
**A.** 1.75 (1.0-6.0) hr

**Q.** And the AUC ([3]; Moderate-Severe Impairment)?
**A.** 32.12 (19.80) ng · hr/mL

**Q.** What about the “mean (±SD) ratio of plasma metabolite AUC to oxymorphone AUC” value (“mean (±SD) ratio” below) ([3]; controls) of the same compound?
**A.** 0.66 (0.30)

**Q.** What about the “increase in average AUC relative to controls” value ([3]; mild hepatic impairment) of the same compound?
**A.** 1.18 fold

**Q.** What about the “conversion of oxymorphone to the metabolite reduced by” value ([3]; mild hepatic impairment) of the same compound?
**A.** approximately 17%

**Q.** What about the “AUC increase relative to healthy controls” value ([3]; mild hepatic impairment, log-transformed comparison) of the same compound?
**A.** 1.36 fold

**Q.** What about the “mean (±SD) ratio” value ([3]; mild impairment) of the same compound?
**A.** 0.55 (0.10)

**Q.** And the “Cmax increase relative to healthy controls” value ([3]; mild impairment, log-transformed comparison)?
**A.** 1.40 fold

**Q.** And the “conversion of oxymorphone to the metabolite reduced by” value [3, 4]?
**A.** ~26%

**Q.** What about the “mean (±SD) ratio” value ([3]; moderate-severe impairment) of the same compound?
**A.** 0.49 (0.37)

**Q.** What about the “increase in average AUC relative to controls” value ([3]; moderate-severe impairment) of the same compound?
**A.** 2.18 fold

**Q.** With `CN1CC[C@]23c4c5ccc(O[C@@H]6O[C@H](C(=O)O)[C@@H](O)[C@H](O)[C@H]6O)c4O[C@H]2C(=O)CC[C@@]3(O)[C@H]1C5` [Oxymorphone-3-glucuronide, oxymorphone-3-glucuronide] as the compound, how does the “mean amount excreted in the urine” value ([2]; control group) read?
**A.** 38.1%

**Q.** What about the “mean ratio metabolite:oxymorphone excreted in the urine” value ([2]; healthy controls) of the same compound?
**A.** 79.05

**Q.** What about the “mean ratio metabolite:oxymorphone excreted in the urine” value ([2]; mild hepatic impairment) of the same compound?
**A.** 39.43

**Q.** What about the “conversion of oxymorphone to the metabolite reduced by” value ([2]; mild hepatic impairment) of the same compound?
**A.** approximately 50%

**Q.** What about the “mean amount excreted in the urine” value ([2]; mild hepatic impairment) of the same compound?
**A.** 39.3%

**Q.** What about the “mean ratio metabolite:oxymorphone excreted in the urine” value [2, 4] of the same compound?
**A.** 33.76

**Q.** And the “conversion of oxymorphone to the metabolite reduced by” value [2, 4]?
**A.** ~57%

**Q.** What about the “mean amount excreted in the urine” value [2, 4] of the same compound?
**A.** 33.7%

**Q.** What about the AUCT ([3]; Healthy Controls) of the same compound?
**A.** 2886.8 (883.9) ng · hr/mL

**Q.** And the Cmax ([3]; Healthy Controls)?
**A.** 234.3 (41.7) ng/mL

**Q.** What about the T½ ([3]; Healthy Controls) of the same compound?
**A.** 8.89 (3.00) hr

**Q.** What about the λz ([3]; Healthy Controls) of the same compound?
**A.** 0.0859 (0.0264) hr^−1

**Q.** And the Tmax ([3]; Healthy Controls)?
**A.** 3.0 (1.5-4.0) hr

**Q.** What about the AUC ([3]; Healthy Controls) of the same compound?
**A.** 2979.6 (896.1) ng · hr/mL

**Q.** And the AUCT ([3]; Mild Impairment)?
**A.** 2836.7 (1091.9) ng · hr/mL

**Q.** What about the Cmax ([3]; Mild Impairment) of the same compound?
**A.** 274.1 (95.8) ng/mL

**Q.** What about the T½ ([3]; Mild Impairment) of the same compound?
**A.** 8.21 (3.87) hr

**Q.** What about the λz ([3]; Mild Impairment) of the same compound?
**A.** 0.0974 (0.0367) hr^−1

**Q.** And the Tmax ([3]; Mild Impairment)?
**A.** 3.0 (3.0-4.0) hr

**Q.** And the AUC ([3]; Mild Impairment)?
**A.** 2954.1 (1136.2) ng · hr/mL

**Q.** And the AUCT ([3]; Moderate-Severe Impairment)?
**A.** 2629.3 (1457.8) ng · hr/mL

**Q.** And the Cmax ([3]; Moderate-Severe Impairment)?
**A.** 212.0 (100.5) ng/mL

**Q.** And the T½ ([3]; Moderate-Severe Impairment)?
**A.** 7.40 (2.98) hr

**Q.** What about the λz ([3]; Moderate-Severe Impairment) of the same compound?
**A.** 0.1075 (0.0435) hr^−1

**Q.** And the Tmax ([3]; Moderate-Severe Impairment)?
**A.** 3.5 (3.0-4.0) hr

**Q.** And the AUC ([3]; Moderate-Severe Impairment)?
**A.** 2713.9 (1498.6) ng · hr/mL

**Q.** What about the “mean (±SD) ratio” value ([3]; controls) of the same compound?
**A.** 104.1 (39.5)

**Q.** And the “circulating concentrations exceed those of the parent compound by” value ([3]; healthy control group)?
**A.** approximately 100 fold

**Q.** What about the “AUC point estimate, mild hepatic impairment vs healthy controls” value ([3]; mild hepatic impairment) of the same compound?
**A.** 0.972

**Q.** And the “Cmax point estimate, mild hepatic impairment vs healthy controls” value ([3]; mild hepatic impairment)?
**A.** 1.133

**Q.** What about the “conversion of oxymorphone to the metabolite reduced by” value ([3]; mild hepatic impairment) of the same compound?
**A.** approximately 35%

**Q.** And the “mean (±SD) ratio” value ([3]; mild impairment)?
**A.** 67.2 (27.0)

**Q.** What about the “conversion of oxymorphone to the metabolite reduced by” value [3, 4] of the same compound?
**A.** ~56%

**Q.** And the “AUC as percent of control” value ([3]; moderate-severe impairment)?
**A.** approximately 80%

**Q.** What about the “Cmax as percent of control” value ([3]; moderate-severe impairment) of the same compound?
**A.** approximately 80%

**Q.** What about the “circulating concentrations exceed those of the parent compound by” value ([3]; moderate-severe impairment) of the same compound?
**A.** 45 fold

**Q.** And the “mean (±SD) ratio” value ([3]; moderate-severe impairment)?
**A.** 45.52 (39.2)

**Q.** What about the “mean metabolite-to-parent ratio lower than in the control group” value ([3]; moderate-severe impairment, in both plasma and urine) of the same compound?
**A.** 2,3 fold
